Assay results: US11285127B2, “Compositions and methods for lowering triglycerides without raising LDL-C levels in a subject on concomitant statin therapy” (Amarin Pharmaceuticals Ireland Limited, priority 2013, dated 2022)

Tested on: patients with fasting triglyceride levels >200 mg/dl and <500 mg/dl despite statin therapy
Test: 12-week study: lipid profile (TC, LDL-C, HDL-C, non-HDL-C, VLDL-C, VLDL-TG, RLP-C)
Assay type: in vivo, human
Conditions: MITT
Excerpt: Parameters (a)-(z) can be measured in accordance with any clinically acceptable methodology. For example, triglycerides, total cholesterol, HDL-C and fasting blood sugar can be sample from serum and analyzed using standard photometry techniques. VLDL-TG, LDL-C and VLDL-C can be calculated or determined using serum lipoprotein fractionation by preparative ultracentrifugation and subsequent quantitative analysis by refractometry or by analytic ultracentrifugal methodology. Apo A1, Apo B and hsCRP can be determined from serum using standard nephelometry techniques. Lipoprotein (a) can be determined from serum using standard turbidimetric immunoassay techniques. LDL particle number and particle size can be determined using nuclear magnetic resonance (NMR) spectrometry. Remnants lipoproteins and LDL-phospholipase A2 can be determined from EDTA plasma or serum and serum, respectively, using enzymatic immunoseparation techniques. Oxidized LDL, intercellular adhesion molecule-1 and interleukin-2 levels can be determined from serum using standard enzyme immunoassay techniques. These techniques are described in detail in standard textbooks, for example Tietz Fundamentals of Clinical Chemistry, 6th Ed. (Burtis, Ashwood and Borter Eds.), WB Saunders Company.
A multi-center, placebo-controlled, randomized, double-blind, 12-week study was performed to evaluate the efficacy and safety of >96% E-EPA in patients with fasting triglyceride levels >200 mg/dl and <500 mg/dl despite statin therapy (the mean of two qualifying entry values needed to be >185 mg/dl and at least one of the values needed to be >200 mg/dl). The primary objective of the study was to determine the efficacy of >96% E-EPA 2 g daily and 4 g daily, compared to placebo, in lowering fasting TG levels in patients with high risk for cardiovascular disease and with fasting TG levels 200 mg/dl and <500 mg/dl, despite treatment to LDL-C goal on statin therapy.
The secondary objectives of this study were the following: • 1. To determine the safety and tolerability of >96% E-EPA 2 g daily and 4 g daily; • 2. To determine the effect of >96% E-EPA on lipid and apolipoprotein profiles including total cholesterol (TC), non-high-density lipoprotein cholesterol (non-HDL-C), low density lipoprotein cholesterol (LDL-C), high density lipoprotein cholesterol (HDL-C), and […]; • 3. To determine the effect of >96% E-EPA on lipoprotein associated phospholipase A2 (Lp-PLA2) from baseline to week 12; • 4. To determine the effect of >96% E-EPA on low-density lipoprotein (LDL) particle number and size; • 5. To determine the effect of >96% E-EPA on oxidized LDL; • 6. To determine the effect of >96% E-EPA on fasting plasma glucose (FPG) and hemoglobin A1c (HbA1c); • 7. To determine the effect of >96% E-EPA on insulin resistance; • 8. To determine the effect of >96% E-EPA on high-sensitivity C-reactive protein (hsCRP); • 9. To determine the effects of >96% E-EPA 2 g daily and 4 g daily on the incorporation of fatty acids into red blood cell membranes and into plasma phospholipids; • 10. To explore the relationship between baseline fasting TG levels and the reduction in fasting TG levels; and • 11. To explore the relationship between changes of fatty acid concentrations in plasma and red blood cell membranes, and the reduction in fasting TG levels.
The primary efficacy variable for the double-blind treatment period was percent change in TG from baseline to Week 12 endpoint. […]

[1] = AMR 101 2 g + statin, Atorva subgroup
[2] = AMR 101 2 g + statin, Rosuva subgroup
[3] = AMR 101 2 g + statin, Simva subgroup
[4] = AMR 101 2 g + statin, Statin Potency High
[5] = AMR 101 2 g + statin, Statin Potency Low
[6] = AMR 101 2 g + statin, Statin Potency Medium
[7] = AMR 101 2 g + statin, Diabetes No, Week 12 endpoint
[8] = AMR 101 2 g + statin, Diabetes Yes, Week 12 endpoint
[9] = AMR 101 2 g + statin, Non-statin Washout No, Week 12 endpoint
[10] = AMR 101 2 g + statin, Non-statin Washout Yes, Week 12 endpoint
[11] = AMR 101 2 g + statin, baseline TG tertile Highest (≥289.5 mg/dL), Week 12 endpoint
[12] = AMR 101 2 g + statin, baseline TG tertile Lowest (<230.5 mg/dL), Week 12 endpoint
[13] = AMR 101 2 g + statin, baseline TG tertile Middle (230.5 to <289.5 mg/dL), Week 12 endpoint
[14] = AMR101 2 g/d + statin, Week 12 endpoint
[15] = AMR101 2 g/d + statin, percent change from baseline to Week 12 endpoint
[16] = AMR 101 4 g + statin, Atorva subgroup

## CC/C=C\C/C=C\C/C=C\C/C=C\C/C=C\CCCC(=O)OCC [AMR101, ethyl eicosapentaenoate]
[1]
  LDL-C Median % chg from BL: 4.9%
  LDL-C, Diff from pbo (Hodges-Lehmann median difference): 1.1
  LDL-C, EOT (Week 12 endpoint) median: 88.0
  Non-HDL-C Median % chg from BL: 10.5%
  Non-HDL-C, Diff from pbo (Hodges-Lehmann median difference): 2.0
  Non-HDL-C, EOT (Week 12 endpoint) median: 135.0
[2]
  LDL-C Median % chg from BL: 4.3%
  LDL-C, Diff from pbo (Hodges-Lehmann median difference): −4.2
  LDL-C, EOT (Week 12 endpoint) median: 87.0
  Non-HDL-C Median % chg from BL: 2.7%
  Non-HDL-C, Diff from pbo (Hodges-Lehmann median difference): −9.0
  Non-HDL-C, EOT (Week 12 endpoint) median: 133.0
[3]
  LDL-C Median % chg from BL: 1.8%
  LDL-C, Diff from pbo (Hodges-Lehmann median difference): −4.8
  LDL-C, EOT (Week 12 endpoint) median: 88.0
  Non-HDL-C Median % chg from BL: 0.0%
  Non-HDL-C, Diff from pbo (Hodges-Lehmann median difference): −6.8
  Non-HDL-C, EOT (Week 12 endpoint) median: 133.5
[4]
  LDL-C Median % chg from BL: 3.1%
  LDL-C, Diff from pbo (Hodges-Lehmann median difference): −1.7
  LDL-C, EOT (Week 12 endpoint) median: 91.0
  Non-HDL-C Median % chg from BL: 5.4%
  Non-HDL-C, Diff from pbo (Hodges-Lehmann median difference): −3.5
  Non-HDL-C, EOT (Week 12 endpoint) median: 142
[5]
  LDL-C Median % chg from BL: 0.9%
  LDL-C, Diff from pbo (Hodges-Lehmann median difference): 7.1
  LDL-C, EOT (Week 12 endpoint) median: 95.0
  Non-HDL-C Median % chg from BL: −2.2%
  Non-HDL-C, Diff from pbo (Hodges-Lehmann median difference): 3.3
  Non-HDL-C, EOT (Week 12 endpoint) median: 135
[6]
  LDL-C Median % chg from BL: 2.4%
  LDL-C, Diff from pbo (Hodges-Lehmann median difference): −5.9
  LDL-C, EOT (Week 12 endpoint) median: 85.0
  Non-HDL-C Median % chg from BL: 1.7%
  Non-HDL-C, Diff from pbo (Hodges-Lehmann median difference): −7.1
  Non-HDL-C, EOT (Week 12 endpoint) median: 133
[7]
  LDL-C Diff from pbo (median % chg, Hodges-Lehmann): −3.1%
  LDL-C EOT Median: 88.0 mg/dL
  LDL-C Median % chg from BL: 2.6%
  Non-HDL-C Diff from pbo (median % chg, Hodges-Lehmann): −8.6%
  Non-HDL-C EOT Median: 133 mg/dL
  Non-HDL-C Median % chg from BL: −0.7%
[8]
  LDL-C Diff from pbo (median % chg, Hodges-Lehmann): −3.8%
  LDL-C EOT Median: 87.0 mg/dL
  LDL-C Median % chg from BL: 2.2%
  Non-HDL-C Diff from pbo (median % chg, Hodges-Lehmann): −4.4%
  Non-HDL-C EOT Median: 135 mg/dL
  Non-HDL-C Median % chg from BL: 5.1%
[9]
  LDL-C Diff from pbo (median % chg, Hodges-Lehmann): −1.2%
  LDL-C EOT Median: 91.5 mg/dL
  LDL-C Median % chg from BL: 3.5%
  Non-HDL-C Diff from pbo (median % chg, Hodges-Lehmann): −4.6%
  Non-HDL-C EOT Median: 135 mg/dL
  Non-HDL-C Median % chg from BL: 3.8%
[10]
  LDL-C Diff from pbo (median % chg, Hodges-Lehmann): −6.3%
  LDL-C EOT Median: 85.0 mg/dL
  LDL-C Median % chg from BL: 2.2%
  Non-HDL-C Diff from pbo (median % chg, Hodges-Lehmann): −6.9%
  Non-HDL-C EOT Median: 133 mg/dL
  Non-HDL-C Median % chg from BL: 0.0%
[11]
  LDL-C Diff from pbo (median % chg, Hodges-Lehmann): −2.0%
  LDL-C EOT Median: 85.0
  LDL-C Median % chg from BL: 1.7%
  Non-HDL-C Diff from pbo (median % chg, Hodges-Lehmann): −5.0%
  Non-HDL-C EOT Median: 150
  Non-HDL-C Median % chg from BL: 3.0%
[12]
  LDL-C Diff from pbo (median % chg, Hodges-Lehmann): −5.7%
  LDL-C EOT Median: 92.0
  LDL-C Median % chg from BL: 3.1%
  Non-HDL-C Diff from pbo (median % chg, Hodges-Lehmann): −4.2%
  Non-HDL-C EOT Median: 129
  Non-HDL-C Median % chg from BL: 6.9%
[13]
  LDL-C Diff from pbo (median % chg, Hodges-Lehmann): −2.6%
  LDL-C EOT Median: 86.5
  LDL-C Median % chg from BL: 3.1%
  Non-HDL-C Diff from pbo (median % chg, Hodges-Lehmann): −7.0%
  Non-HDL-C EOT Median: 132
  Non-HDL-C Median % chg from BL: −1.2%
AMR101 2 g/d + statin
  HDL-C Week 12 EP Median (IQR): 38.0 (11.0) mg/dL
  LDL-C Week 12 EP Median (IQR): 87.0 (27.0) mg/dL
  Non-HDL-C Week 12 EP Median (IQR): 134.0 (41.0) mg/dL
  RLP-C Week 12 EP Median (IQR): 11.0 (7.0) mg/dL
  Total cholesterol Week 12 EP Median (IQR): 175.0 (44.0) mg/dL
  VLDL-C Week 12 EP Median (IQR): 44.0 (25.0) mg/dL
  VLDL-TG Week 12 EP Median (IQR): 168.0 (98.0) mg/dL
[14]
  HDL-C Percent change from Baseline Median (IQR): 0 (19.5) %
  LDL-C Percent change from Baseline Median (IQR): 2.4 (26.1) %
  Non-HDL-C Percent change from Baseline Median (IQR): 2.4 (26.1) %
  RLP-C Percent change from Baseline Median (IQR): −11.1 (40.0) %
  Total cholesterol Percent change from Baseline Median (IQR): 2.1 (19.6) %
  VLDL-C Percent change from Baseline Median (IQR): 1.6 (54.6) %
  VLDL-TG Percent change from Baseline Median (IQR): −2.1 (48.9) %
[15]
  HDL-C Difference from placebo Estimated median: −2.2%
  LDL-C Difference from placebo Estimated median: −3.6%
  Non-HDL-C Difference from placebo Estimated median: −5.5%
  RLP-C Difference from placebo Estimated median: −16.7%
  Total cholesterol Difference from placebo Estimated median: −4.8%
  VLDL-C Difference from placebo Estimated median: −10.5%
  VLDL-TG Difference from placebo Estimated median: −11.3%
[16]
  LDL-C Median % chg from BL: 9.0%
  LDL-C, Diff from pbo (Hodges-Lehmann median difference): 2.5
  LDL-C, EOT (Week 12 endpoint) median: 82.5
  Non-HDL-C Median % chg from BL: −6.3%
